Reference: patent US20190053492A1, “SUBSTITUTED PYRIDINE COMPOUNDS AS PESTICIDES” (Bayer CropScience Aktiengesellschaft, priority 2016, published 2019)
Where two headings read alike, the source gives them in different places.

Key:
[1] = log P by HPLC on reversed-phase column (C 18), EEC Directive 79/831 Annex V.A8; type: physicochemical; conditions: 55° C.; for LOGP_HCOOH: log P (HCOOH); for chromatographic logP: reversed-phase HPLC column (C 18)
Method: Temperature: 55° C. […] Called log P (HCOOH) in the table. […] Called log P (neutral) in the table.

[2] = system: Phaedon cochleariae; test: Phaedon cochleariae spray test; type: in vivo; conditions: after 7 days, Chinese cabbage leaf discs
Method: Phaedon cochleariae—Spray Test
(§1) Solvent: 78.0 parts by weight of acetone • • 1.5 parts by weight of dimethylformamide
(§2) Emulsifier: alkylaryl polyglycol ether
(§3) To produce a suitable active ingredient formulation, 1 part by weight of active ingredient is dissolved with the specified parts by weight of solvent and made up with water containing an emulsifier concentration of 1000 ppm until the desired concentration is attained. To produce further test concentrations, the formulation is diluted with emulsifier-containing water.
Discs of Chinese cabbage leaves (Brassica pekinensis) are sprayed with an active ingredient formulation of the desired concentration and, after drying, populated with larvae of the mustard beetle (Phaedon cochleariae).
After 7 days, the efficacy in % is determined. 100% means that all the beetle larvae have been killed; 0% means that no beetle larvae have been killed.

[3] = system: Spodoptera frugiperda; test: Spodoptera frugiperda spray test; type: in vivo; conditions: after 7 days, maize leaf discs
Method: Spodoptera frugiperda—Spray Test
as §1, §2, §3
Leaf discs of maize (Zea mays) are sprayed with an active ingredient formulation of the desired concentration and, after drying, populated with caterpillars of the armyworm (Spodoptera frugiperda).
After 7 days, the efficacy in % is determined. 100% means that all the caterpillars have been killed; 0% means that no caterpillar has been killed.

[4] = acidic range pH 2.7, 0.1% aqueous formic acid and acetonitrile, reversed-phase column (C 18)
[5] = log P, neutral range, HPLC on reversed-phase column (C 18)
[6] = acidic range at pH 2.7, 0.1% aqueous formic acid and acetonitrile, HPLC on reversed-phase column (C 18)
[7] = log P (neutral), HPLC reversed-phase column (C 18)

Structure (SMILES) | LOGP_HCOOH [1, 4] | efficacy (beetle larvae killed) ([2]; application rate 500 g/ha) [%] | LOGP_NEUTRAL [1, 5] | LOGP_HCOOH [1, 6] | further results
N#Cc1ccc(CNC(=O)c2cc(-c3ccc(F)cc3)cc(NC(=O)C3CC3)n2)cc1 [Example I-002] | 3.24 | 100 | – | – | –
O=C(NCc1ccc(Cl)nc1)c1cc(-c2ccc(Cl)cc2)cc(NC(=O)C2CC2)n1 [Example I-024] | 3.53 | 100 | 3.47 | – | –
N#Cc1ccc(CNC(=O)c2cc(-c3ccc(I)cc3)cc(NC(=O)C3CC3)n2)cc1 [Example I-050] | 3.87 | 83 | 3.83 | – | –
CC(C)C(=O)Nc1cc(-c2ccc(C(F)(F)F)cc2)cc(C(=O)NCc2c(F)cc(C#N)cc2F)n1 [Example I-069] | 4.16 | 83 | 4.05 | – | –
O=C(NCc1ccc([N+](=O)[O-])cc1)c1cc(-c2ccc(C(F)(F)F)cc2)cc(NC(=O)C2CC2)n1 [Example I-084] | 3.98 | 100 | 3.85 | – | –
N#Cc1ccc(CNC(=O)c2cc(-c3ccc(S(=O)(=O)C(F)(F)F)cc3)cc(NC(=O)C3CC3)n2)cn1 [Example I-097] | 3.24 | 100 | 3.11 | – | –
N#Cc1ccc(CNC(=O)c2cc(-c3ccc(SC(F)F)cc3)cc(NC(=O)C3CC3)n2)cc1 [Example I-180] | – | 100 | 3.46 | 3.55 | efficacy (beetle larvae killed) ([2]; application rate 100 g/ha): 100%
NS(=O)(=O)c1ccc(CNC(=O)c2cc(-c3ccc(OC(F)(F)F)cc3)cc(NC(=O)C3CC3)n2)cc1 [Example I-186] | – | 100 | 3.00 | 3.17 | –
N#Cc1ccc(CNC(=O)c2cc(-n3ccc(C(F)(F)C(F)(F)F)n3)cc(NC(=O)C3CC3)n2)cc1 [Example I-188, N-(4-Cyanobenzyl)-6-[(cyclopropylcarbonyl)amino]-4-[3-(pentafluoroethyl)-1H-pyrazol-1-yl]pyridine-2-carboxamide] | – | – | 3.57 | 3.70 | chromatographic logP ([1]; pH 2.7, LC-MS acidic range, pH 2.7, 0.1% formic acid/acetonitrile, read-out: log P (acidic) / log P (HCOOH)): 3.7; chromatographic logP ([1]; pH 7.8, LC-MS neutral range, pH 7.8, ammonium hydrogencarbonate/acetonitrile, read-out: log P (neutral)): 3.57; pest or weed control at 100 g/ha ([2]; Phaedon cochleariae, foliar, 168 h, application rate 100 g/ha, read-out: efficacy (beetle larvae killed)): 100%; pest or weed control at 500 g/ha ([2]; Phaedon cochleariae, foliar, 168 h, application rate 500 g/ha, read-out: efficacy (beetle larvae killed)): 100%
O=C(NCc1ccc([N+](=O)[O-])cc1)c1cc(-c2ccc(C(F)(F)C(F)(F)F)c(F)c2)cc(NC(=O)C2CC2)n1 [Example I-209] | – | – | 4.33 | 4.34 | efficacy (beetle larvae killed) ([2]; application rate 100 g/ha): 100%
N#Cc1ccc(CNC(=O)c2cc(-c3ccc(OC(F)(F)F)cc3)cc(NC(=O)C3(C#N)CC3)n2)cc1 [Example I-210] | – | 83 | 3.88 | 4.04 | efficacy (beetle larvae killed) ([2]; application rate 100 g/ha): 83%
N#Cc1ccc(CNC(=O)c2cc(-c3ccc(C(F)F)c(F)c3)cc(NC(=O)C3CC3)n2)cc1 [Example I-222] | – | 100 | 3.34 | 3.39 | efficacy (beetle larvae killed) ([2]; application rate 100 g/ha): 100%
N#Cc1ccc(CNC(=O)c2cc(-c3ccc(OC(F)(F)F)cc3)cc(NC(=O)c3ccc(Cl)nc3)n2)cc1 [Example I-256] | 4.25 | – | – | – | efficacy (caterpillars killed) ([3]; application rate 500 g/ha): 100%; LOGP_NEUTRAL [1, 7]: 4.20
N#Cc1ccc(CNC(=O)c2cc(-c3ccc(OC(F)(F)F)cc3)cc(NC(=O)Cc3ccc(C(F)(F)F)cc3)n2)cc1 [Example I-260] | 4.68 | – | – | – | efficacy (caterpillars killed) ([3]; application rate 100 g/ha): 100%; efficacy (caterpillars killed) ([3]; application rate 500 g/ha): 100%; LOGP_NEUTRAL [1, 7]: 4.66
N#Cc1ccc(CNC(=O)c2cc(-c3cc(F)c(C(F)(F)C(F)(F)F)cc3Cl)cc(NC(=O)C3CC3)n2)cc1 [Example I-269] | 4.34 | – | – | – | efficacy (caterpillars killed) ([3]; application rate 500 g/ha): 83%
N#Cc1ccc(CNC(=O)c2cc(-c3ccc(C(F)(F)C(F)(F)F)c(Cl)c3)cc(NC(=O)C3CC3)n2)cc1 [Example I-273] | 4.45 | – | – | – | efficacy (caterpillars killed) ([3]; application rate 500 g/ha): 100%
